From US10624875B2, “Methods and compositions for treating schizophrenia” (The Johns Hopkins University, priority 2012, dated 2020)

Tested on: aMCI subjects
Experiment: Verbal Paired Associates Test - Recognition
Type: in vivo, human
Conditions: 125 mg twice a day for two weeks
Procedure: A within-subjects trial of 8 weeks duration, involving 17 amnestic MCI (aMCI) subjects and 17 age-matched controls with a low dose treatment of levetiracetam is conducted. During the course of the study, each aMCI subject receives both drug and placebo treatments separately in two periods of two weeks each, with the order of treatments among different aMCI subjects counterbalanced (see FIG. 7). Age-matched control subjects treated with placebo serve as a further control. Cognitive testing and fMRI imaging data are obtained from the subjects after each two week period of drug/placebo treatment.
All participants undergo neuropsychological evaluation at the time of assessment for treatment efficacy (Visits 1 and 2), as well as at the Baseline Visit. […]
As described above, the drug treatment period is the two weeks preceding Visit 1 or 2 (with the two week period preceding the other Visit being the placebo phase). For the subjects receiving the drug treatment, half a scored 250 mg tablet of levetiracetam is used to achieve a dose of […], which is approximately 3.6 mg/kg/day (assuming an average adult human weight of 70 kg).

**Q.** How did the “performance in Verbal Paired Associates Test - Recognition” value turn out when `CC[C@@H](C(N)=O)N1CCCC1=O` [levetiracetam, (2S)-2-(2-oxopyrrolidin-1-yl) butanamide] was run?
**A.** Its value is “fail to rescue performance”.
